The experiment has as its system Malassezia furfur. The experiment can be described thus: comparative corneofungimetry bioassay on human stratum corneum strippings. In kind it is cell-based. Particulars: for Median positive fungal cells# from 20 samples: 9 days at 27° C., neutral red vital stain, counted by mm^2.
[1] abbreviates: 1% zinc pyrithione water suspension.
Where [2] appears, read: formulated shampoo containing 1% zinc pyrithione.

Protocol: As a more advanced test, “corneofungimetry” was used to evaluate the particles prepared in accordance with the Example and Comparative Examples. This test is a good pre-clinical screening method because it requires growing the Malassezia furfur sp on a substrate that is more representative of its natural environment. Cyanoacrylate is used to harvest a layer of skin, and these skin surface strippings are treated with olive oil to simulate sebum. The prepared skin samples are then treated with the actives under investigation, inoculated with the microorganism of interest and incubated.
The corneofungimetry bioassay was performed on normal stratum corneum harvested from 20 healthy volunteers using cyanoacrylate adhesive. Samples were dipped into olive oil and stored in a sterile environment for 3 days.
Malassezia furfur was cultured on MLNA (Modified Leeming and Notman Agar) medium. Suspensions of fungal cells were prepared in physiologic saline (10^4-10^5 cells/ml). Aliquots of 250 μl of these suspensions were deposited onto the stratum corneum samples and incubated under moist conditions at 27° C. for 9 days. Samples were then stained using neutral red as a vital stain identifying living fungi growing on the human stratum corneum. The number of positive fungal cells was counted by mm^2 using computerized image analysis (Analysis Olympus). The medians and ranges were determined. Between-product comparisons were performed using the paired non-parametric Friedman test followed by the Dunn test.

Regarding zinc pyrithione [Uncoated], under setting [1], the “% killing compared to saline control” value is on record as 44% and the “Median positive fungal cells# from 20 samples” value is reported as 451. Also, under setting [2], the “% killing compared to saline control” value turned out to be 52% and the “Median positive fungal cells# from 20 samples” value stood at 363.

Source of the values: patent US20050118276A1, “Coated metal pyrithione particles for treatment of microorganisms” (Arch Chemicals, Inc., priority 2003, published 2005).
